How the values were obtained:
[1] = Radioligand stability in mice (radio-HPLC of blood and urine); format: in vivo; settings: mean ± SD
Protocol: The formation of radiometabolites which can be detected in the blood was tested in blood samples collected 5 min post-injection (pi) of each of the radioligands [^67Ga]Ga/[^111In]In/[^177Lu]Lu-GAS1/3 and [^67Ga]Ga/[^111In]In-GAS2. For this study, in-house male Swiss albino mice (body weight: 30 ± 5 g, provided by the NCSR “Demokritos” Animal House) were used in groups of three. The animals received, through the tail vein, a 100-μL bolus containing each radioligand tested (2.5–3 nmol of the total conjugate in vehicle: saline/EtOH 9/1 v/v, corresponding to: up to 11 MBq for In-111, up to 13 MBq for Ga-67 and up to 74 MBq for Lu-177). Mice were euthanized, and blood was collected directly from the heart using a prechilled penicillin syringe and transferred in a prechilled EDTA-containing Eppendorf Protein LoBind® tube on ice (40 µL, 50 mM Na2EDTA solution). After centrifugation (10 min, 2000× g/4 °C, in a Hettich, Universal 320R, centrifuge), the blood plasma was collected, mixed with chilled MeCN in a 1/1 v/v ratio and centrifuged again (10 min, 15,000× g/4 °C). Supernatants were collected and concentrated to a small volume (≈50–100 μL) under a gentle N2-flux at 40 °C. They were then diluted with physiological saline (≈400 μL) and filtered through a Millex GV filter (0.22 μm, 13 mm Ø, Millipore, Milford, CT, USA). Aliquots of the filtrate were analyzed by radio-RP-HPLC using a Waters Symmetry Shield RP18 cartridge column (5 μm, 3.9 mm × 20 mm) eluted at a flow rate of 1.0 mL/min with the following gradient: 100% A/0% B to 55% A/45% B in 45 min; A = 0.1% aqueous TFA (v/v) and B = MeCN (system 2). The elution time (tR) of each parent radioligand was determined by coinjection of blood samples with an aliquot of the labeling solution on the HPLC column. Results were calculated as the average percentage of intact radioligand ± SD derived from three independent experiments.
Following the same injection protocol, radioligands were administered in additional groups of mice, but this time animals were euthanized 30 min pi. The urine was immediately collected from the bladder using a prechilled syringe and transferred as before in a prechilled EDTA-containing Eppendorf Protein LoBind® centrifuge tube on ice (40 µL, 50 mM Na2EDTA solution) and 0.1 mL of physiological saline. Urine proteins were precipitated by adding chilled MeCN in a 1/1 v/v ratio followed by a 10 min centrifugation step (15,000× g/4 °C). The supernatant was then collected and treated following the blood sample workup procedure. Aliquots of the Millex-GV filtrate (containing >90% of total urine activity) were analyzed by radio-HPLC, adopting the aforementioned conditions. Results were calculated as the average percentage of intact radioligand ± SD derived from three independent experiments.

[2] = tested on: SCID mice bearing twin HEK293-CCK2i4svR and wtHEK293 tumors; assay: Biodistribution in SCID mice bearing twin HEK293-CCK2i4svR and wtHEK293 xenografts; format: in vivo
Summary of the method: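 Uptake is expressed as %IA/g (mean ± SD, n = 4) from gamma counting of blood, organs and tumours collected at set times: 1, 4 and 24 h pi for ^67Ga, 4 and 24 h for ^111In (±gelofusine), 4–96 h for ^177Lu. Radioligands were given iv at 7–40 pmol to SCID mice bearing twin CCK2i4svR-transfected and wild-type HEK293 xenografts.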

[3] = tested on: HEK293-CCK2i4svR and wtHEK293 xenografts; assay: SPECT/CT of HEK293-CCK2i4svR and wtHEK293 xenografts; format: in vivo, mice; settings: 4 h and 24 h pi
Protocol: For SPECT/CT imaging, six mice bearing twin HEK293-CCK2i4svR and wtHEK293 tumors were injected in the tail vein with a bolus containing [^111In]In-GAS1/2/3 (100 μL, 9–12 MBq associated with 3 nmol total injected analog in-vehicle: saline/EtOH 9/1 v/v). Mice were euthanized at 4 h and 24 h pi. Tomographic SPECT/CT imaging was performed with the y-CUBE/x-CUBE systems (Molecubes, Belgium). The SPECT system is based on monolithic NaI detectors attached to SiPMs, with a 0.6 mm intrinsic resolution. The CT system is based on a structured CMOS detector of CsI with pixels of 75 µm and operates between 35–80 kVp, 10–500 µA tube current, with a 33 µm fixed focal spot size. SPECT scans were acquired 4 h pi and 24 h pi, with a 40–50 min duration protocol based on the injected activity, and each SPECT scan was succeeded by a CT scan, following General-Purpose protocol under 50 kVp, for co-registration purposes. SPECT images were reconstructed using the MLEM reconstruction method with a 250 µm voxel size and 500 iterations. CT images were reconstructed using the ISRA reconstruction method with a 100 µm voxel size.
Images were exported and post-processed on VivoQuant software, version 4.0 (Invicro, Boston). A smoothing median filter (0.6 mm, spherical window) was applied to the images, and the bladder was removed for consistency purposes. Normalization of images was performed (i.e., all images having the same color scale range values) to achieve a direct visual comparison between the different groups.

[4] = 4 h + Gelo (Gelofusine-treated mice)
[5] = 24 h + Gelo (Gelofusine-treated mice)

- Intact radioligand in blood ([1]; mice blood collected 5 min pi): 84.6 ± 2.4 (3) %
- Intact radioligand in urine ([1]; mice urine collected 30 min pi): 85.2 ± 5.2 (3) %
- Biodistribution, Blood [2, 4]: 2.75 ± 0.48 %IA/g
- Biodistribution, CCK2i4svR(+) Tumor [2, 4]: 19.17 ± 2.06 %IA/g
- Biodistribution, CCK2i4svR(-) Tumor [2, 4]: 0.86 ± 0.15 %IA/g
- Biodistribution, Femur [2, 4]: 0.65 ± 0.15 %IA/g
- Biodistribution, Heart [2, 4]: 0.92 ± 0.16 %IA/g
- Biodistribution, Intestines [2, 4]: 1.87 ± 0.08 %IA/g
- Biodistribution, Kidneys [2, 4]: 5.93 ± 0.56 %IA/g
- Biodistribution, Liver [2, 4]: 6.34 ± 0.86 %IA/g
- Biodistribution, Muscle [2, 4]: 0.28 ± 0.06 %IA/g
- Biodistribution, Pancreas [2, 4]: 1.47 ± 0.26 %IA/g
- Biodistribution, Spleen [2, 4]: 1.13 ± 0.28 %IA/g
- Biodistribution, Stomach [2, 4]: 0.77 ± 0.14 %IA/g
- Biodistribution, Blood ([2]; 4 h pi): 3.51 ± 0.56 %IA/g
- Biodistribution, CCK2i4svR(+) Tumor ([2]; 4 h pi): 17.79 ± 1.73 %IA/g
- Biodistribution, CCK2i4svR(-) Tumor ([2]; 4 h pi): 0.73 ± 0.05 %IA/g
- Biodistribution, Femur ([2]; 4 h pi): 0.77 ± 0.13 %IA/g
- Biodistribution, Heart ([2]; 4 h pi): 1.10 ± 0.19 %IA/g
- Biodistribution, Intestines ([2]; 4 h pi): 3.37 ± 0.89 %IA/g
- Biodistribution, Kidneys ([2]; 4 h pi): 6.06 ± 1.24 %IA/g
- Biodistribution, Liver ([2]; 4 h pi): 7.69 ± 1.00 %IA/g
- Biodistribution, Lungs ([2]; 4 h pi): 2.23 ± 0.39 %IA/g
- Biodistribution, Muscle ([2]; 4 h pi): 0.26 ± 0.04 %IA/g
- Biodistribution, Pancreas ([2]; 4 h pi): 1.49 ± 0.19 %IA/g
- Biodistribution, Spleen ([2]; 4 h pi): 1.56 ± 0.22 %IA/g
- Biodistribution, Stomach ([2]; 4 h pi): 0.98 ± 0.21 %IA/g
- Biodistribution, Blood [2, 5]: 0.07 ± 0.01 %IA/g
- Biodistribution, CCK2i4svR(+) Tumor [2, 5]: 4.51 ± 0.55 %IA/g
- Biodistribution, CCK2i4svR(-) Tumor [2, 5]: 0.23 ± 0.04 %IA/g
- Biodistribution, Femur [2, 5]: 0.16 ± 0.01 %IA/g
- Biodistribution, Heart [2, 5]: 0.15 ± 0.02 %IA/g
- Biodistribution, Intestines [2, 5]: 0.49 ± 0.13 %IA/g
- Biodistribution, Kidneys [2, 5]: 1.69 ± 0.13 %IA/g
- Biodistribution, Liver [2, 5]: 1.30 ± 0.15 %IA/g
- Biodistribution, Lungs [2, 5]: 0.39 ± 0.03 %IA/g
- Biodistribution, Muscle [2, 5]: 0.06± 0.01 %IA/g
- Biodistribution, Pancreas [2, 5]: 0.14 ± 0.01 %IA/g
- Biodistribution, Spleen [2, 5]: 0.48 ± 0.08 %IA/g
- Biodistribution, Stomach [2, 5]: 0.25 ± 0.04 %IA/g
- Biodistribution, Blood ([2]; 24 h pi): 0.08 ± 0.01 %IA/g
- Biodistribution, CCK2i4svR(+) Tumor ([2]; 24 h pi): 5.40 ± 1.13 %IA/g
- Biodistribution, CCK2i4svR(-) Tumor ([2]; 24 h pi): 0.27 ± 0.10 %IA/g
- Biodistribution, Femur ([2]; 24 h pi): 0.16 ± 0.03 %IA/g
- Biodistribution, Heart ([2]; 24 h pi): 0.15 ± 0.03 %IA/g
- Biodistribution, Intestines ([2]; 24 h pi): 0.59 ± 0.11 %IA/g
- Biodistribution, Kidneys ([2]; 24 h pi): 1.84 ± 0.38 %IA/g
- Biodistribution, Liver ([2]; 24 h pi): 2.27 ± 0.30 %IA/g
- Biodistribution, Lungs ([2]; 24 h pi): 0.36 ± 0.05 %IA/g
- Biodistribution, Muscle ([2]; 24 h pi): 0.06± 0.00 %IA/g
- Biodistribution, Pancreas ([2]; 24 h pi): 0.18 ± 0.03 %IA/g
- Biodistribution, Spleen ([2]; 24 h pi): 0.64 ± 0.12 %IA/g
- Biodistribution, Stomach ([2]; 24 h pi): 0.21 ± 0.05 %IA/g
- SPECT/CT uptake in CCK2i4svR expressing tumors [3]: Intense uptake
- SPECT/CT uptake in wtHEK293 tumors devoid of CCK2i4svR expression [3]: no uptake is evident
Structure (SMILES): CC(C)(C)C(=O)CN1C(=O)[C@H](NC(=O)Nc2cccc(C(=O)NCCOCCOCCOCCNC(=O)[C@H](CCC(=O)O)NC(=O)CN3CCN(CC(=O)[O-])CCN(CC(=O)[O-])CCN(CC(=O)[O-])CC3)c2)CN(C2CCCCC2)c2ccccc21.[111In+3] (stereo in doubt) [[^111In]In-GAS1]

Source: paper PMC8954547, “Nonpeptidic Z360-Analogs Tagged with Trivalent Radiometals as Anti-CCK2R Cancer Theranostic Agents: A Preclinical Study” (Pharmaceutics, 2022)
